Holding throughout (assay type): cell-based
One experiment concerns the target T1, Adenosine receptor A3 (Homo sapiens, UniProt P0DMS8).
T1 sequence (P0DMS8 whole entry): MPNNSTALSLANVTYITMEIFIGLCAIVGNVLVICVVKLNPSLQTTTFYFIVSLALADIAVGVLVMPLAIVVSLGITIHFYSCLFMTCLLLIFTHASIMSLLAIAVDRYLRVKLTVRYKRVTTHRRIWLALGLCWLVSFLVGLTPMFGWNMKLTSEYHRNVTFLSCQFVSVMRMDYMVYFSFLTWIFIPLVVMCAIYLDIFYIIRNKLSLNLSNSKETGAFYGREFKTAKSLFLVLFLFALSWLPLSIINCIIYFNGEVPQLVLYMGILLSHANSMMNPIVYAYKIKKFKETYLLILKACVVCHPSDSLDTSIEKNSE
The experiment in a line: Displacement of [125I]AB-MECA from human adenosine A3 receptor expressed in CHO cells. (In a radioligand displacement assay an active substance lowers the binding of a labelled ligand.)

The target of another experiment is T2, Adenosine receptor A1 (Homo sapiens, UniProt P30542).
T2 sequence (P30542 whole entry): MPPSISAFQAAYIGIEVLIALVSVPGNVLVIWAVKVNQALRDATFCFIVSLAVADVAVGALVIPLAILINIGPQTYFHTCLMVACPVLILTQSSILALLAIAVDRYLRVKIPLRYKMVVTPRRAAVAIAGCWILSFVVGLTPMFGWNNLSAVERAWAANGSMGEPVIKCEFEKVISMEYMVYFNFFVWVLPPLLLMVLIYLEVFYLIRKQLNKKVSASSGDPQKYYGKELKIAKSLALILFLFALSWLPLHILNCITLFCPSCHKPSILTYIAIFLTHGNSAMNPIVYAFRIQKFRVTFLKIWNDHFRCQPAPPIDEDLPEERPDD
The experiment in a line: Displacement of [3H]DPCPX from human adenosine A1 receptor expressed in CHO cells.

The target of a further experiment is Adenosine receptor A2a (Homo sapiens, UniProt P29274). Put plainly: Displacement of [3H]NECA from human adenosine A2A receptor expressed in CHO cells.
Sequence of Adenosine receptor A2a (P29274 whole entry): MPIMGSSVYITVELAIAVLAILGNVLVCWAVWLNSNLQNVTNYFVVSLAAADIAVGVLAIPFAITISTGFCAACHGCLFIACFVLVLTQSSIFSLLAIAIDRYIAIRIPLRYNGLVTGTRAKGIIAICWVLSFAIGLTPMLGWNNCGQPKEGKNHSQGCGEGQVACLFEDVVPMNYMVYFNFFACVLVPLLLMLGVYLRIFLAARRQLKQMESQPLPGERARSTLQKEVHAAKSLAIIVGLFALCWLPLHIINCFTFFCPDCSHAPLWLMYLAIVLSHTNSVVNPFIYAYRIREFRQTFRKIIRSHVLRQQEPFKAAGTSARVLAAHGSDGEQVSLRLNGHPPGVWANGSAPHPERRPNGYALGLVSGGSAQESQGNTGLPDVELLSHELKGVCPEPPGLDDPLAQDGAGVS

A value given as a limit tells only on which side of the number the result lay.

Consider `Cc1ccc2[nH]c(-c3cnc4ccccc4n3)nc2c1`, for which the Ki (in general, the equilibrium dissociation constant of an inhibitor or competing ligand from its target) was > 1000 nM on Adenosine receptor A3, > 10000 nM at Adenosine receptor A1 and > 10000 nM at Adenosine receptor A2a.
Regarding `Oc1c2nnnc-2nc2n1CCCS2`, the Ki on Adenosine receptor A3 was 437 nM; on Adenosine receptor A1, > 10000 nM; on Adenosine receptor A2a, > 10000 nM.
In the case of `Cc1cc2nc(-c3cnc4ccccc4n3)[nH]c2cc1C`, the inhibitory constant (Ki) was 370 nM on Adenosine receptor A3, > 10000 nM at Adenosine receptor A1 and > 10000 nM at Adenosine receptor A2a.
For the molecule `Clc1cc(Cl)c2[nH]c(-c3cnc4ccccc4n3)nc2c1`, the inhibition constant (Ki) on Adenosine receptor A3 was 699 nM; at Adenosine receptor A1, 9.3 nM; at Adenosine receptor A2a, > 10000 nM.
The matching figures for `c1ccc2nc(-c3nc4ncncc4[nH]3)cnc2c1`: > 1000 nM, > 10000 nM and > 10000 nM.
The matching figures for `COc1ccc2nc(-c3cnc4ccccc4n3)[nH]c2c1`: > 1000 nM, > 10000 nM and > 10000 nM.
With `CCSc1cccc2[nH]c(-c3cnc4ccccc4n3)nc12`, the Ki on Adenosine receptor A1 turned out to be 0.5 nM; on Adenosine receptor A2a, 3440 nM.
Consider `CSc1cccc2nc(-c3cnc4ccccc4n3)[nH]c12`, for which the inhibition constant (Ki) worked out at 278 nM at Adenosine receptor A3, 2.1 nM on Adenosine receptor A1 and 3000 nM at Adenosine receptor A2a.
The matching figures for `O=[N+]([O-])c1cccc2[nH]c(-c3cnc4ccccc4n3)nc12`: 879 nM, > 10000 nM and > 10000 nM.
`Cc1cc(Cl)cc2[nH]c(-c3cnc4ccccc4n3)nc12`: the Ki at Adenosine receptor A3 was 238 nM; on Adenosine receptor A1 it was 3.6 nM; at Adenosine receptor A2a, > 10000 nM.
The matching figures for `CCc1nc2c3[nH]c(C)nc3c3nc(C)[nH]c3c2[nH]1`: 147 nM, 496 nM and > 10000 nM.
Turning to `CCc1nc2c([nH]1)c1nc(CC)[nH]c1c1nc(CC)[nH]c21`, the Ki on Adenosine receptor A3 was 104 nM; on Adenosine receptor A1, 46 nM; on Adenosine receptor A2a it was 720 nM.
The matching figures for `c1c[nH]c2nc(-c3cnc4ccccc4n3)nc-2c1`: > 1000 nM, > 10000 nM and > 10000 nM.
The matching figures for `Clc1ccc2[nH]c(-c3cnc4ccccc4n3)nc2c1`: 632 nM, > 10000 nM and > 10000 nM.
Take `Cc1cccc2[nH]c(-c3cnc4ccccc4n3)nc12`: the Ki on Adenosine receptor A1 was 8000 nM; at Adenosine receptor A2a, 833 nM.
As for `Oc1c2nnnc-2nc2n1CCS2`, the Ki on Adenosine receptor A3 is > 1000 nM; at Adenosine receptor A1, > 10000 nM; on Adenosine receptor A2a it was > 10000 nM.
Turning to `Cc1nc2c([nH]1)c1nc(C)[nH]c1c1nc(C)[nH]c21`, the inhibition constant (Ki) on Adenosine receptor A1 and at Adenosine receptor A2a was > 10000 nM in each case.
On to `c1ccc2nc(-c3nc4ccccc4[nH]3)cnc2c1`, for which the figures for the inhibition constant (Ki) at Adenosine receptor A1 and at Adenosine receptor A2a were 50 nM and 561 nM, respectively.
The matching figures for `c1ccc(-c2nnc(-c3ccccn3)[nH]2)nc1`: > 10000 nM and > 10000 nM.
As for `CCc1nc2c([nH]1)c1nc(C)[nH]c1c1nc(CC)[nH]c12`, the Ki is 135 nM at Adenosine receptor A3, 966 nM at Adenosine receptor A1 and 329 nM on Adenosine receptor A2a.
As for `c1ccc2nc(-c3nc4cc[nH]cc-4n3)cnc2c1`, the figures for the Ki on Adenosine receptor A3, at Adenosine receptor A1 and on Adenosine receptor A2a were 168 nM, > 10000 nM and > 10000 nM, respectively.
With `Oc1c2nnnc-2nc2sccn12`, the values for the inhibitory constant (Ki) on Adenosine receptor A3, at Adenosine receptor A1 and at Adenosine receptor A2a were > 1000 nM, > 10000 nM and > 10000 nM, respectively.
For `O=c1[nH]c2ccccc2nc1-c1cc(Cl)[nH]n1`, the Ki on Adenosine receptor A2a was > 10000 nM.
For the molecule `Clc1cccc2nc(-c3cnc4ccccc4n3)[nH]c12`, the Ki at Adenosine receptor A3 was 140 nM; at Adenosine receptor A1, 350 nM; on Adenosine receptor A2a it was > 10000 nM.
Regarding `CC1CSc2nc3nnnc-3c(O)n21` (configuration not stated), the Ki on Adenosine receptor A1 and at Adenosine receptor A2a was > 10000 nM in each case.
